Drawing on US20260265195A1, “SARM1 MODULATORS, PREPARATIONS, AND USES THEREOF” (SIRONAX LTD, priority 2022, published 2026), this text covers IC50 for 27 molecules.

As usually defined, the IC50 is the concentration that gives 50% inhibition.

The target in the experiment is T1, SARM1 (50-724) (Homo sapiens, UniProt Q6SZW1).
T1 construct: Purified SARM1 (50-724) with a final concentration of 2 nM
T1 sequence (Q6SZW1 50-724): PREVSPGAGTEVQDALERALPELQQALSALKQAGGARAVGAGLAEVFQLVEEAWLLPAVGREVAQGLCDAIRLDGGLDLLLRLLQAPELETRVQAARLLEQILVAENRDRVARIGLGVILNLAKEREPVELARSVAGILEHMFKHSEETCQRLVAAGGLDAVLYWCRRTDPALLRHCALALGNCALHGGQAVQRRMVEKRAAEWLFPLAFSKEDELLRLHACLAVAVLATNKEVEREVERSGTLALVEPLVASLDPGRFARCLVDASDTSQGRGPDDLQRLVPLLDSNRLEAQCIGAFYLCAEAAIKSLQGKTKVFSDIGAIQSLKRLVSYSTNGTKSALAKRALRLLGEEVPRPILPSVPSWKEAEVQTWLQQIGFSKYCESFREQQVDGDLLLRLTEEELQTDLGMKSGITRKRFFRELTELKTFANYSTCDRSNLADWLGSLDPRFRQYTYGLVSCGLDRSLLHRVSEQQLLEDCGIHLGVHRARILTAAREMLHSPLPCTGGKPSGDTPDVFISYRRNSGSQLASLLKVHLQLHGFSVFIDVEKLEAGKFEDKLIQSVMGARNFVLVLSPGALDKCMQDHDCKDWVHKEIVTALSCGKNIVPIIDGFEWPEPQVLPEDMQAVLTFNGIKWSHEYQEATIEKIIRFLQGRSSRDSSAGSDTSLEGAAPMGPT
The experiment can be described thus: SARM1 (50-724) enzymatic assay (NMN-activated NAD+ hydrolysis, LC-MS/MS readout). In kind it is biochemical. Particulars: purified SARM1 (50-724) 2 nM, 200 μM NMN activator, 100 μM NAD+ substrate, 1 h at room temperature, read-out: IC50 (SARM1 inhibitory activity). An outline of the steps: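 NMN-activated NAD+ hydrolysis: compound pre-incubated 15 min at room temperature with 2 nM SARM1 (50-724) at 1% DMSO in DPBS; 100 μM NAD+ plus 200 μM NMN added and reacted 1 h at RT. Acetonitrile quench, LC-MS/MS readout.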
Regarding `O=C(c1nc2cc(C(F)(F)F)ccc2[nH]1)N(CCO)c1nccc(Cl)c1Cl` [Compound 100, N-(3,4-dichloropyridin-2-yl)-N-(2-hydroxyethyl)-5-(trifluoromethyl)-1H-benzo[d]imidazole-2-carboxamide], the IC50 was at most 100 nM.
Consider `CN(C(=O)c1nc2c(N3CCOCC3)cccc2[nH]1)C1CCCC1` [Compound 101, N-cyclopentyl-N-methyl-4-morpholino-1H-benzo[d]imidazole-2-carboxamide], for which the IC50 was at least 1000 nM.
As for `CC1CCC(C)C1N(CCO)C(=O)c1nc2cc(C(F)(F)F)ccc2[nH]1` (stereo not drawn) [Compound 102, N-(2,5-dimethylcyclopentyl)-N-(2-hydroxyethyl)-5-(trifluoromethyl)-1H-benzo[d]imidazole-2-carboxamide], the IC50 was at most 100 nM.
With `O=C(c1nc2cc(C(F)(F)F)ccc2[nH]1)N(CCO)c1cccc(Cl)c1Cl` [Compound 103, N-(2,3-dichlorophenyl)-(2-hydroxyethyl)-5-(trifluoromethyl)-1H-benzo[d]imidazole-2-carboxamide], the 50% inhibitory concentration (IC50) was at most 100 nM.
To `CN(C(=O)c1nc2cc(Br)ccc2[nH]1)C1CCCC1` [Compound 104, 5-bromo-N-cyclopentyl-N-methyl-1H-benzo[d]imidazole-2-carboxamide] belongs 101 to 500 nM; to `O=C(c1nc2cc(C(F)(F)F)ccc2[nH]1)N(CC1COC1)c1cccc(Cl)c1Cl` [Compound 105, N-(2,3-dichlorophenyl)-N-(oxetan-3-ylmethyl)-5-(trifluoromethyl)-1H-benzo[d]imidazole-2-carboxamide], at most 100 nM.
For the molecule `O=C(c1nc2cc(C(F)(F)F)ccc2[nH]1)N(CC(F)(F)C(=O)O)c1cccc(Cl)c1Cl` [Compound 106, 3-(N-(2,3-dichlorophenyl)-6-(trifluoromethyl)-1H-benzo[d]imidazole-2-carboxamido)-2,2-difluoropropanoic acid], the IC50 was at most 100 nM.
As for `NC(=O)C(F)(F)CN(C(=O)c1nc2cc(C(F)(F)F)ccc2[nH]1)c1cccc(Cl)c1Cl` [Compound 107, N-(3-amino-2,2-difluoro-3-oxopropyl)-N-(2,3-dichlorophenyl)-5-(trifluoromethyl)-1H-benzo[d]imidazole-2-carboxamide], the IC50 is at most 100 nM.
With `CS(=O)(=O)c1ccc2[nH]c(C(=O)N(CCO)c3cccc(Cl)c3Cl)nc2c1` [Compound 108, N-(2,3-dichlorophenyl)-N-(2-hydroxyethyl)-5-(methylsulfonyl)-1H-benzo[d]imidazole-2-carboxamide], the IC50 is 101 to 500 nM.
Take `N#Cc1cc(Cl)c(Cl)c(N(CCO)C(=O)c2nc3cc(C(F)(F)F)ccc3[nH]2)c1` [Compound 109, N-(2,3-dichloro-5-cyanophenyl)-N-(2-hydroxyethyl)-5-(trifluoromethyl)-1H-benzo[d]imidazole-2-carboxamide]: the IC50 lay within 101 to 500 nM.
To `Cn1nc(N(CCO)C(=O)c2nc3cc(C(F)(F)F)ccc3[nH]2)c(Cl)c1Cl` [Compound 110, N-(4,5-dichloro-1-methyl-1H-pyrazol-3-yl)-N-(2-hydroxyethyl)-5-(trifluoromethyl)-1H-benzo[d]imidazole-2-carboxamide] belongs at most 100 nM; to `Cn1nc(N(CC2COC2)C(=O)c2nc3cc(C(F)(F)F)ccc3[nH]2)c(Cl)c1Cl` [Compound 111, N-(4,5-dichloro-1-methyl-1H-pyrazol-3-yl)-N-(oxetan-3-ylmethyl)-5-(trifluoromethyl)-1H-benzo[d]imidazole-2-carboxamide], at most 100 nM.
With `O=C(c1nc2cc(C(F)(F)F)ccc2[nH]1)N(CC(F)(F)CO)c1cccc(Cl)c1Cl` [Compound 112, N-(2,3-dichlorophenyl)-N-(2,2-difluoro-3-hydroxypropyl)-5-(trifluoromethyl)-1H-benzo[d]imidazole-2-carboxamide] the figure was at most 100 nM; with `CN(C(=O)c1nc2c(C3COC3)cccc2[nH]1)C1CCCC1` [Compound 113, N-cyclopentyl-N-methyl-4-(oxetan-3-yl)-1H-benzo[d]imidazole-2-carboxamide], at least 1000 nM; with `O=C(c1nc2cc(C(F)(F)F)ccc2[nH]1)N(CC1CNC1)c1cccc(Cl)c1Cl` [Compound 114, N-(azetidin-3-ylmethyl)-N-(2,3-dichlorophenyl)-5-(trifluoromethyl)-1H-benzo[d]imidazole-2-carboxamide], 101 to 500 nM.
Consider `N#Cc1ccc(Cl)c(Cl)c1N(CCO)C(=O)c1nc2cc(C(F)(F)F)ccc2[nH]1` [Compound 115, N-(2,3-dichloro-6-cyanophenyl)-N-(2-hydroxyethyl)-5-(trifluoromethyl)-1H-benzo[d]imidazole-2-carboxamide], for which the IC50 was at most 100 nM.
With `O=C(c1nc2cc(C(F)(F)F)ccc2[nH]1)N(CCN1CC(F)(F)C1)c1cccc(Cl)c1Cl` [Compound 116, N-(2,3-dichlorophenyl)-N-(2-(3,3-difluoroazetidin-1-yl)ethyl)-5-(trifluoromethyl)-1H-benzo[d]imidazole-2-carboxamide] the figure was at most 100 nM; with `O=C(c1nc2cc(C(F)(F)F)ccc2[nH]1)N(c1cccc(Cl)c1Cl)C1CNC1` [Compound 117, N-(azetidin-3-yl)-N-(2,3-dichlorophenyl)-5-(trifluoromethyl)-1H-benzo[d]imidazole-2-carboxamide], at least 1000 nM; with `Cc1c(Cl)cccc1N(C)C(=O)c1nc2cc(C(F)(F)F)ccc2[nH]1` [Compound 118, N-(3-chloro-2-methylphenyl)-N-methyl-5-(trifluoromethyl)-1H-benzo[d]imidazole-2-carboxamide], at most 100 nM.
In the case of `O=C(c1nc2cc(-c3ccn[nH]3)ccc2[nH]1)N(CC1COC1)c1cccc(Cl)c1Cl` [Compound 119], the IC50 fell in the range of 101 to 500 nM.
With `CN(C(=O)c1nc2cc(C(F)(F)F)ccc2[nH]1)c1cc(F)cc(Cl)c1Cl` [Compound 120, N-(2,3-dichloro-5-fluorophenyl)-N-methyl-5-(trifluoromethyl)-1H-benzo[d]imidazole-2-carboxamido] the figure was at most 100 nM.
As for `CNCCN(C(=O)c1nc2cc(C(F)(F)F)ccc2[nH]1)c1cccc(Cl)c1Cl` [Compound 121, N-(2,3-dichlorophenyl)-N-(2-(methylamino)ethyl)-5-(trifluoromethyl)-1H-benzo[d]imidazole-2-carboxamide], the IC50 was in the range of 101 to 500 nM.
For the molecule `Cc1cc(-c2ccc3[nH]c(C(=O)N(CC4COC4)c4cccc(Cl)c4Cl)nc3c2)[nH]n1` [Compound 122], the IC50 lay within 101 to 500 nM.
In the case of `Cc1ccc2[nH]c(C(=O)N(C)c3cccc(Cl)c3Cl)nc2c1` [Compound 123, N-(2,3-dichlorophenyl)-N,5-dimethyl-1H-benzimidazole-2-carboxamide], the IC50 was at most 100 nM.
With `Cc1cn[nH]c1-c1ccc2[nH]c(C(=O)N(CC3COC3)c3cccc(Cl)c3Cl)nc2c1` [Compound 124] the figure was at least 1000 nM; with `Cc1cccc(N(C)C(=O)c2nc3cc(C(F)(F)F)ccc3[nH]2)c1Cl` [Compound 125, N-(2-chloro-3-methylphenyl)-N-methyl-5-(trifluoromethyl)-1H-benzo[d]imidazole-2-carboxamide], at most 100 nM; with `Cn1nc(Cl)c(Cl)c1N(CCO)C(=O)c1nc2cc(C(F)(F)F)ccc2[nH]1` [Compound 126, N-(3,4-dichloro-1-methyl-1H-pyrazol-5-yl)-N-(2-hydroxyethyl)-5-(trifluoromethyl)-1H-benzo[d]imidazole-2-carboxamide], at least 1000 nM.
